Assay results reported in patent US20060079453A1, “Hla binding peptides and their uses” (priority 2002, published 2006).
Like-named read-outs stand apart in the source and are kept apart here. No end group written: not given here.

Key:
Assay in all cases: biochemical
Format in all cases: binding
HLA-DR DRB1*0101 (DR1) = HLA-DR DRB1*0101 (DR1) (Homo sapiens, UniProt P01903+P01911, A100R/D57E/F55L/F60I/F76Y/I96L/L162R/M171V/P40L/Q125E/R42F/V115G/Y59C)
HLA-DR DRB1*0401 (DR4) = HLA-DR DRB1*0401 (DR4) (Homo sapiens, UniProt P01903+P01911, A100K/A169T/F76Y/I96L/K127E/L162R/M171V/N62H/P40V/Q125Y/R42H/S133A/S149N/S66Y/V115G/V209L/W38E)
HLA-DR DRB1*0701 (DR7) = HLA-DR DRB1*0701 (DR7) (Homo sapiens, UniProt P01903+P01911, A100R/A102G/A103Q/D57E/D86V/E43K/F76Y/K127E/L162R/M171V/P40G/Q125H/Q99D/R33Q/R42Y/R54Q/S133A/S66F/T210M/V115G/Y107V/Y59L/Y89S)
HLA-DR DRB4*0101 (DR53) = HLA-DR DRB4*0101 (DR53) (Homo sapiens, UniProt P01903+P13762, G164S)
HLA-DR DRB1*1302 (DR13) = HLA-DR DRB1*1302 (DR13) (Homo sapiens, UniProt P01903+P01911, A100E/A169T/K41T/L162R/M171V/P40S/Q125H/Q178H/Q39Y/Q99D/R42S/S66N/T262R/V115G/W38E/Y61H)
HLA-DR DRB1*1501 (DR15) = HLA-DR DRB1*1501 (DR15) (Homo sapiens, UniProt P01903+P01911)
HLA-DR DRB5*0101 (DR51) = HLA-DR DRB5*0101 (DR51) (Homo sapiens, UniProt P01903+Q30154)

HLA-DR DRB1*1302 (DR13), sequence (P01903 26-254 limits assumed, other chains not shown): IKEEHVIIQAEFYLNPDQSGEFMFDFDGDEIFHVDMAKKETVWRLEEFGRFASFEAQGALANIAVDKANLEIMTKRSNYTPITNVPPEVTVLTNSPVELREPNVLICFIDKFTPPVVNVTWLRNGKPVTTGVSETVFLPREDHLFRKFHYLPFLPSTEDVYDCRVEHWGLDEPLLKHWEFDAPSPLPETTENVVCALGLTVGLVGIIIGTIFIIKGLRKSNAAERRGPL

FSYFPSI [FSYFPSI] gave an IC50 (HLA-DR DRB1*0101 (DR1); DRB1 *0101) of at least 50000 nM.

AAKGIKIGFGIFA showed an IC50 (HLA-DR DRB1*0101 (DR1); DRB1 *0101) of at least 50000 nM and an IC50 (HLA-DR DRB1*0401 (DR4); DRB1 *0401) of 471 nM.

Work on AAAKAAAAAAFAA yielded an IC50 (HLA-DR DRB1*0401 (DR4); DRB1 *0401) of 235 nM.

Work on KSLLSTNLPYGRTNL yielded an IC50 (HLA-DR DRB1*0701 (DR7); DRB1 *0701) of 50000 nM and an IC50 (HLA-DR DRB1*0401 (DR4); DRB1 *0401) of 690 nM.

Compound AAFFFFFGGGGGA has an IC50 (HLA-DR DRB1*0101 (DR1); DRB1 *0101) of at least 50000 nM and an IC50 (HLA-DR DRB1*0401 (DR4); DRB1 *0401) of 800 nM.

PQPFRPQQPYP gave an IC50 (HLA-DR DRB4*0101 (DR53); DRB4 *0101) of 14 nM.

PQPFRPQQPYKQ was tested, and the IC50 (HLA-DR DRB4*0101 (DR53); DRB4 *0101) was 35 nM.

PQPFRPQQP showed an IC50 (HLA-DR DRB4*0101 (DR53); DRB4 *0101) of 19 nM.

QFLGQQQPFPP showed an IC50 (HLA-DR DRB4*0101 (DR53); DRB4 *0101) of 2.3 nM.

C[C@H](N)C(=O)N[C@@H](CO)C(=O)N[C@@H](C)C(=O)N[C@@H](C)C(=O)N[C@@H](C)C(=O)N[C@@H](C)C(=O)N[C@@H](C)C(=O)N[C@@H](C)C(=O)N[C@@H](C)C(=O)N[C@@H](C)C(=O)N[C@@H](C)C(=O)N[C@@H](C)C(=O)N[C@@H](C)C(=O)O gave an IC50 (HLA-DR DRB1*0101 (DR1); DRB1 *0101) of at least 50000 nM.

With QNILFSNAPLGPQFP the IC50 (HLA-DR DRB1*0401 (DR4); DRB1 *0401) was 195 nM.

Work on PEFLEQRRAAVDTYC yielded an IC50 (HLA-DR DRB1*0101 (DR1); DRB1 *0101) of 5000 nM and an IC50 (HLA-DR DRB1*0401 (DR4); DRB1 *0401) of 80000 nM.

In the case of PQPFRKQQPYPQ, the IC50 (HLA-DR DRB4*0101 (DR53); DRB4 *0101) is reported as 22 nM.

QFLGQQQPF showed an IC50 (HLA-DR DRB4*0101 (DR53); DRB4 *0101) of 5.3 nM.

With NYELSKKAVIFTPIY [NYELSKXAVIFTPIY] the IC50 (HLA-DR DRB1*1302 (DR13); DRBI *1302) was 410 nM, the IC50 (HLA-DR DRB1*1501 (DR15); DRBI *1501) was 537 nM and the IC50 (HLA-DR DRB5*0101 (DR51); DRB5 *0101) was 10600 nM.

Work on HFFKNIVTPRTPPY yielded an IC50 (HLA-DR DRB1*1501 (DR15); DRBI *1501) of 460 nM and an IC50 (HLA-DR DRB5*0101 (DR51); DRB5 *0101) of 377 nM.

DPNANPNVDPNAN was tested, and the IC50 (HLA-DR DRB1*0701 (DR7); read-out: DRB1 *0701) was over 15600 nM and the IC50 (HLA-DR DRB1*0401 (DR4); read-out: DRB1 *0401) was 738 nM.

Work on GRLEYCLKDRRNFDI yielded an IC50 (HLA-DR DRB5*0101 (DR51); DRB5 *0101) of 64700 nM.

In the case of EERVKKPLSEITIRC, the IC50 (HLA-DR DRB4*0101 (DR53); DRB4 *0101) is reported as 2990 nM, the IC50 (HLA-DR DRB1*0701 (DR7); DRB1 *0701) is reported as 9450 nM and the IC50 (HLA-DR DRB1*0401 (DR4); DRB1 *0401) is reported as 11900 nM. For the same compound, the IC50 (HLA-DR DRB5*0101 (DR51); DRB5 *0101) was 7910 nM.

Compound QKQVQMMIMIKFMGV has an IC50 (HLA-DR DRB4*0101 (DR53); read-out: DRB4 *0101) of 5.3 nM, an IC50 (HLA-DR DRB1*1501 (DR15); read-out: DRBI *1501) of 363 nM and an IC50 (HLA-DR DRB5*0101 (DR51); read-out: DRB5 *0101) of 915 nM.

In the case of QFLGQQQPFPPQ, the IC50 (HLA-DR DRB4*0101 (DR53); DRB4 *0101) is reported as 2.8 nM.

PKPFRPQQPYPQ showed an IC50 (HLA-DR DRB4*0101 (DR53); DRB4 *0101) of 3.4 nM.

Work on SMEYKKDFLITARKY yielded an IC50 (HLA-DR DRB1*1302 (DR13); read-out: DRBI *1302) of 3820 nM and an IC50 (HLA-DR DRB1*1501 (DR15); read-out: DRBI *1501) of 4610 nM.

Work on AAKIFIGFFIDGA yielded an IC50 (HLA-DR DRB1*0401 (DR4); DRB1 *0401) of 200 nM.

With (43)AADFGIFIDFHA the IC50 (HLA-DR DRB1*0401 (DR4); read-out: DRB1 *0401) was 235 nM.

For Ac-ASQKRPSQRHGSKYLATAST, the IC50 (HLA-DR DRB5*0101 (DR51); DRB5 *0101) was 4560 nM.

NPVVHFFKNIVTPR showed an IC50 (HLA-DR DRB1*1501 (DR15); DRBI *1501) of 3.7 nM and an IC50 (HLA-DR DRB5*0101 (DR51); DRB5 *0101) of 1890 nM.

With YAR(15A)RQTTLKA the IC50 (HLA-DR DRB1*0101 (DR1); read-out: DRB1 *0101) was 1.6 nM, the IC50 (HLA-DR DRB1*0701 (DR7); read-out: DRB1 *0701) was 8330 nM and the IC50 (HLA-DR DRB1*0401 (DR4); read-out: DRB1 *0401) was 0.35 nM.

For PFRPQQPYPQ, the IC50 (HLA-DR DRB4*0101 (DR53); DRB4 *0101) was 42 nM.

AAAKAAAAAAAAF showed an IC50 (HLA-DR DRB1*0101 (DR1); DRB1 *0101) of over 1670 nM and an IC50 (HLA-DR DRB1*0401 (DR4); DRB1 *0401) of over 348 nM.

NLALQTLPAMCNVY showed an IC50 (HLA-DR DRB4*0101 (DR53); DRB4 *0101) of 27 nM.

For AAKAAAAAAA(10)AA, the IC50 (HLA-DR DRB1*0401 (DR4); read-out: DRB1 *0401) was over 889 nM.

Work on IRNLALQTLP yielded an IC50 (HLA-DR DRB4*0101 (DR53); DRB4 *0101) of 3 nM.

AAAKAAAAFAAAA gave an IC50 (HLA-DR DRB1*0101 (DR1); DRB1 *0101) of at least 50000 nM.

With C[C@H](N)C(=O)N[C@@H](C)C(=O)N[C@@H](C)C(=O)N[C@@H](C)C(=O)N[C@@H](C)C(=O)N[C@@H](C)C(=O)N[C@@H](C)C(=O)N[C@@H](C)C(=O)N[C@@H](C)C(=O)N[C@@H](C)C(=O)N[C@@H](C)C(=O)N[C@@H](C)C(=O)N[C@@H](CC(N)=O)C(=O)O the IC50 (HLA-DR DRB1*0101 (DR1); DRB1 *0101) was at least 50000 nM and the IC50 (HLA-DR DRB1*0401 (DR4); DRB1 *0401) was 500 nM.

Compound RIVYRDNNPYGVCIM has an IC50 (HLA-DR DRB4*0101 (DR53); read-out: DRB4 *0101) of 1400 nM, an IC50 (HLA-DR DRB1*1501 (DR15); read-out: DRBI *1501) of 821 nM and an IC50 (HLA-DR DRB5*0101 (DR51); read-out: DRB5 *0101) of 20500 nM.

Work on KYVKQNTLKLAT yielded an IC50 (HLA-DR DRB1*0101 (DR1)) of 9.9 nM and an IC50 (HLA-DR DRB1*0401 (DR4)) of 6.2 nM.

QKWAAVVVPS was tested, and the IC50 (HLA-DR DRB1*0101 (DR1); DRB1 *0101) was at least 50000 nM and the IC50 (HLA-DR DRB1*0401 (DR4); DRB1 *0401) was 1000 nM.

Work on KKNIIALLIIPPKIH yielded an IC50 (HLA-DR DRB4*0101 (DR53); read-out: DRB4 *0101) of 8.2 nM and an IC50 (HLA-DR DRB1*1501 (DR15); read-out: DRBI *1501) of 32 nM.

AALKATAAAAAAA gave an IC50 (HLA-DR DRB1*0101 (DR1); DRB1 *0101) of at least 50000 nM and an IC50 (HLA-DR DRB1*0401 (DR4); DRB1 *0401) of 800 nM.

YARFLALTTLRARA was tested, and the IC50 (HLA-DR DRB1*0101 (DR1); read-out: DRB1 *0101) was 0.98 nM and the IC50 (HLA-DR DRB1*0401 (DR4); read-out: DRB1 *0401) was 0.28 nM.

TWQLNGEELIQDM showed an IC50 (HLA-DR DRB1*0101 (DR1); read-out: DRB1 *0101) of at least 50000 nM.

Work on FFKNIVTFFKNIVT yielded an IC50 (HLA-DR DRB1*0101 (DR1); DRB1 *0101) of at least 50000 nM, an IC50 (HLA-DR DRB1*0701 (DR7); DRB1 *0701) of over 12500 nM and an IC50 (HLA-DR DRB1*0401 (DR4); DRB1 *0401) of over 667 nM.

Compound C[C@H](NC(=O)[C@H](C)NC(=O)[C@H](C)NC(=O)[C@H](C)NC(=O)[C@H](C)NC(=O)[C@H](C)NC(=O)[C@H](C)NC(=O)[C@H](C)NC(=O)[C@H](C)NC(=O)[C@H](C)NC(=O)[C@H](C)NC(=O)[C@H](C)NC(=O)[C@@H](N)Cc1ccccc1)C(=O)O has an IC50 (HLA-DR DRB1*0401 (DR4); DRB1 *0401) of 200 nM.

Work on IRNLALQTLPAMCNVY yielded an IC50 (HLA-DR DRB4*0101 (DR53); DRB4 *0101) of 1.9 nM.

In the case of AWVAWRNRCK, the IC50 (HLA-DR DRB1*0101 (DR1); read-out: DRB1 *0101) is reported as at least 50000 nM and the IC50 (HLA-DR DRB1*0701 (DR7); read-out: DRB1 *0701) is reported as over 12500 nM.

For PQPFKPQQPYPQ, the IC50 (HLA-DR DRB4*0101 (DR53); DRB4 *0101) was 19 nM.

With AAAAASAAAAAAA the IC50 (HLA-DR DRB1*0101 (DR1); DRB1 *0101) was at least 50000 nM and the IC50 (HLA-DR DRB1*0401 (DR4); DRB1 *0401) was 235 nM.

Work on PKYFKQGFLKGAT yielded an IC50 (HLA-DR DRB1*0101 (DR1)) of at least 50000 nM and an IC50 (HLA-DR DRB1*0401 (DR4)) of 800 nM.

Compound ENPVVHAFKNIVTPR has an IC50 (HLA-DR DRB1*1501 (DR15); DRBI *1501) of 4.1 nM and an IC50 (HLA-DR DRB5*0101 (DR51); DRB5 *0101) of 910 nM.
